{"source": "paper PMC5218480", "about": "(PLoS ONE, 2017)", "tested_on": "MV-4-11 cells", "assay": "Gene expression microarray analysis (Affymetrix PrimeView) and GSEA", "format": "cell-based, human", "parameters": "RFU PODN (11730768_x_at) / Fold change /veh PODN (11730768_x_at) / RFU LINC00158 (11744669_a_at) / Fold change /veh LINC00158 (11744669_a_at) / RFU DUSP10 (11751237_a_at) / Fold change /veh DUSP10 (11751237_a_at) / RFU ID3 (11757404_x_at) / Fold change /veh ID3 (11757404_x_at) / RFU PLEKHG5 (11737974_s_at) / Fold change /veh PLEKHG5 (11737974_s_at) / RFU LRRC4B (11730491_at) / Fold change /veh LRRC4B (11730491_at) / RFU GIMAP4 (11747438_a_at) / Fold change /veh GIMAP4 (11747438_a_at) / RFU KRT8 (11758183_x_at) / Fold change /veh KRT8 (11758183_x_at) / RFU CNN1 (11734310_a_at) / Fold change /veh CNN1 (11734310_a_at) / RFU VPS37D (11726825_at) / Fold change /veh VPS37D (11726825_at) / RFU C10orf10 (11716522_x_at) / Fold change /veh C10orf10 (11716522_x_at) / RFU KIR2DL2 /// KIR2DL4 /// KIR2DL5A /// KIR2DL5B /// KIR2DS1 /// KIR2DS2 /// KIR2DS3 /// KIR2DS4 /// KIR3DL3 /// KIR3DL3 /// KIR3DS1 (11738374_at) / Fold change /veh KIR2DL2 /// KIR2DL4 /// KIR2DL5A /// KIR2DL5B /// KIR2DS1 /// KIR2DS2 /// KIR2DS3 /// KIR2DS4 /// KIR3DL3 /// KIR3DL3 /// KIR3DS1 (11738374_at) / RFU C1QL1 (11718748_at) / Fold change /veh C1QL1 (11718748_at) / RFU TMPRSS4 (11747572_a_at) / Fold change /veh TMPRSS4 (11747572_a_at) / RFU HAMP (11756126_x_at) / Fold change /veh HAMP (11756126_x_at) / RFU RNFT2 (11725882_a_at) / Fold change /veh RNFT2 (11725882_a_at) / RFU NR4A2 (11747474_a_at) / Fold change /veh NR4A2 (11747474_a_at) / RFU ABCC12 (11746883_a_at) / Fold change /veh ABCC12 (11746883_a_at) / RFU TMEM136 (11760407_x_at) / Fold change /veh TMEM136 (11760407_x_at) / RFU CLDN22 /// WWC2 (11732394_at) / Fold change /veh CLDN22 /// WWC2 (11732394_at) / RFU HLA-DPB1 (11760878_x_at) / Fold change /veh HLA-DPB1 (11760878_x_at) / RFU SPINT1 (11716480_a_at) / Fold change /veh SPINT1 (11716480_a_at) / RFU GAP43 (11754022_s_at) / Fold change /veh GAP43 (11754022_s_at) / RFU A4GNT (11735810_at) / Fold change /veh A4GNT (11735810_at) / RFU PRB3 (11715151_x_at) / Fold change /veh PRB3 (11715151_x_at) / RFU TUBB4B (11761932_at) / Fold change /veh TUBB4B (11761932_at) / RFU CAPN14 (11732068_a_at) / Fold change /veh CAPN14 (11732068_a_at) / RFU TMCC2 (11721928_a_at) / Fold change /veh TMCC2 (11721928_a_at) / RFU IRGQ (11745062_a_at) / Fold change /veh IRGQ (11745062_a_at) / RFU FAM174B (11720279_a_at) / Fold change /veh FAM174B (11720279_a_at) / RFU TMPRSS4 (11748680_a_at) / Fold change /veh TMPRSS4 (11748680_a_at) / RFU FAM212B (11763350_a_at) / Fold change /veh FAM212B (11763350_a_at) / RFU PLEKHG5 (11743358_a_at) / Fold change /veh PLEKHG5 (11743358_a_at) / RFU ZSCAN30 (11745921_a_at) / Fold change /veh ZSCAN30 (11745921_a_at) / RFU CMKLR1 (11741424_a_at) / Fold change /veh CMKLR1 (11741424_a_at) / RFU LOC101060620 /// MAPK8IP1 (11723275_at) / Fold change /veh LOC101060620 /// MAPK8IP1 (11723275_at) / RFU SPTSSB (11747773_x_at) / Fold change /veh SPTSSB (11747773_x_at) / RFU PRSS12 (11739890_at) / Fold change /veh PRSS12 (11739890_at) / RFU BIN1 (11741810_x_at) / Fold change /veh BIN1 (11741810_x_at) / RFU WNT11 (11732464_a_at) / Fold change /veh WNT11 (11732464_a_at) / RFU C10orf10 (11716521_a_at) / Fold change /veh C10orf10 (11716521_a_at) / RFU C5orf56 (11738089_at) / Fold change /veh C5orf56 (11738089_at) / RFU CYB561 (11721691_x_at) / Fold change /veh CYB561 (11721691_x_at) / RFU ANKRD19P (11752326_a_at) / Fold change /veh ANKRD19P (11752326_a_at) / RFU OR2T12 /// OR2T33 /// OR2T8 (11738714_s_at) / Fold change /veh OR2T12 /// OR2T33 /// OR2T8 (11738714_s_at) / RFU VCAN (11748164_a_at) / Fold change /veh VCAN (11748164_a_at) / RFU JSRP1 (11732532_at) / Fold change /veh JSRP1 (11732532_at) / RFU KRTAP10-11 (11738290_x_at) / Fold change /veh KRTAP10-11 (11738290_x_at) / RFU MYO3A (11730013_a_at) / Fold change /veh MYO3A (11730013_a_at) / RFU EBF3 (11725865_a_at) / Fold change /veh EBF3 (11725865_a_at) / RFU CAMK2N1 (11719241_x_at) / Fold change /veh CAMK2N1 (11719241_x_at) / RFU C5orf56 (11738088_a_at) / Fold change /veh C5orf56 (11738088_a_at) / RFU OLFML3 (11715873_a_at) / Fold change /veh OLFML3 (11715873_a_at) / RFU LOC100653217 /// NTM (11731650_a_at) / Fold change /veh LOC100653217 /// NTM (11731650_a_at) / RFU MAPK11 (11762145_a_at) / Fold change /veh MAPK11 (11762145_a_at) / RFU FIZ1 (11724087_x_at) / Fold change /veh FIZ1 (11724087_x_at) / RFU OASL (11726364_x_at) / Fold change /veh OASL (11726364_x_at) / RFU SOX15 (11748057_x_at) / Fold change /veh SOX15 (11748057_x_at) / RFU CD79A (11719716_a_at) / Fold change /veh CD79A (11719716_a_at) / RFU HIST1H1D (11736915_at) / Fold change /veh HIST1H1D (11736915_at) / RFU CASKIN2 (11723855_a_at) / Fold change /veh CASKIN2 (11723855_a_at) / RFU LOC730098 (11760151_x_at) / Fold change /veh LOC730098 (11760151_x_at) / RFU OR4N2 (11742367_at) / Fold change /veh OR4N2 (11742367_at) / RFU PRRT2 (11749266_a_at) / Fold change /veh PRRT2 (11749266_a_at) / RFU SNX32 (11753110_a_at) / Fold change /veh SNX32 (11753110_a_at) / RFU CDHR5 (11726645_a_at) / Fold change /veh CDHR5 (11726645_a_at) / RFU RCAN1 (11760418_a_at) / Fold change /veh RCAN1 (11760418_a_at) / RFU FAM167A (11723789_a_at) / Fold change /veh FAM167A (11723789_a_at) / RFU FAM26E (11764081_at) / Fold change /veh FAM26E (11764081_at) / RFU ISYNA1 (11749810_s_at) / Fold change /veh ISYNA1 (11749810_s_at) / RFU ACY1 (11761880_at) / Fold change /veh ACY1 (11761880_at) / RFU 11764098_at / Fold change /veh 11764098_at / RFU SAMD14 (11745864_x_at) / Fold change /veh SAMD14 (11745864_x_at) / RFU NPB (11741838_a_at) / Fold change /veh NPB (11741838_a_at) / RFU TMPRSS6 (11731388_a_at) / Fold change /veh TMPRSS6 (11731388_a_at) / RFU KRTAP10-2 (11738614_at) / Fold change /veh KRTAP10-2 (11738614_at) / RFU ARHGAP8 /// PRR5-ARHGAP8 (11727945_x_at) / Fold change /veh ARHGAP8 /// PRR5-ARHGAP8 (11727945_x_at) / RFU KRTAP5-7 /// NADSYN1 (11734609_at) / Fold change /veh KRTAP5-7 /// NADSYN1 (11734609_at) / RFU RASL12 (11751679_a_at) / Fold change /veh RASL12 (11751679_a_at) / RFU CDKN2B (11736163_a_at) / Fold change /veh CDKN2B (11736163_a_at) / RFU PRF1 (11729649_at) / Fold change /veh PRF1 (11729649_at) / RFU, ZNF638 /// ZNF638-IT1 / Fold change vs veh, ZNF638 /// ZNF638-IT1 / RFU, PANK3 / Fold change vs veh, PANK3 / RFU, SH3YL1 / Fold change vs veh, SH3YL1 / RFU, ZEB2 / Fold change vs veh, ZEB2 / RFU, NRIP1 / Fold change vs veh, NRIP1 / RFU, PTTG1IP / Fold change vs veh, PTTG1IP / RFU, CAPN2 / Fold change vs veh, CAPN2 / RFU, MED14 / Fold change vs veh, MED14 / RFU, SNORA58 / Fold change vs veh, SNORA58 / RFU, C1orf63 / Fold change vs veh, C1orf63 / RFU, LRRFIP1 / Fold change vs veh, LRRFIP1 / RFU, NDUFAF7 / Fold change vs veh, NDUFAF7 / RFU, SLC12A2 / Fold change vs veh, SLC12A2 / RFU, IBTK / Fold change vs veh, IBTK / RFU, ESF1 / Fold change vs veh, ESF1 / Fold change vs veh, TMEM50B / RFU, TAOK1 / Fold change vs veh, TAOK1 / RFU, ACBD3 / Fold change vs veh, ACBD3 / RFU, TMA16 / Fold change vs veh, TMA16 / RFU, RWDD3 / Fold change vs veh, RWDD3 / RFU, BCAT1 / Fold change vs veh, BCAT1 / RFU, EDEM3 / Fold change vs veh, EDEM3 / RFU, TMEM33 / Fold change vs veh, TMEM33 / RFU, WDR75 / Fold change vs veh, WDR75 / RFU, AHCTF1 / Fold change vs veh, AHCTF1 / RFU, TFRC / Fold change vs veh, TFRC / RFU, ZDHHC17 / Fold change vs veh, ZDHHC17 / RFU, NOM1 / Fold change vs veh, NOM1 / RFU, ARL8B / Fold change vs veh, ARL8B / RFU, ZBTB11 / Fold change vs veh, ZBTB11 / RFU, TAMM41 / Fold change vs veh, TAMM41 / RFU, KIAA1704 /// LOC100996395 / Fold change vs veh, KIAA1704 /// LOC100996395 / RFU, ING1 / Fold change vs veh, ING1 / RFU, TRMT61B / Fold change vs veh, TRMT61B / RFU, FUBP3 / Fold change vs veh, FUBP3 / RFU, TP53 / Fold change vs veh, TP53 / RFU, TNKS2 / Fold change vs veh, TNKS2 / RFU, ZFP14 / Fold change vs veh, ZFP14 / RFU, ACTR2 / Fold change vs veh, ACTR2 / RFU, PPP3R1 / Fold change vs veh, PPP3R1 / RFU, PIK3R1 / Fold change vs veh, PIK3R1 / RFU, HNRNPA1 / Fold change vs veh, HNRNPA1 / RFU, RNF170 / Fold change vs veh, RNF170 / RFU, ZNF28 / Fold change vs veh, ZNF28 / RFU, RNGTT / Fold change vs veh, RNGTT / RFU, OGT / Fold change vs veh, OGT / RFU, BRD1 / Fold change vs veh, BRD1 / RFU, MARS / Fold change vs veh, MARS / RFU, ZNF655 / Fold change vs veh, ZNF655 / RFU, FAHD1 / Fold change vs veh, FAHD1 / RFU, BDP1 / Fold change vs veh, BDP1 / RFU, LRRCC1 / Fold change vs veh, LRRCC1 / RFU, ARID1A / Fold change vs veh, ARID1A / RFU, ZNF146 / Fold change vs veh, ZNF146 / RFU, ZNF330 / Fold change vs veh, ZNF330 / RFU, GPN3 / Fold change vs veh, GPN3 / RFU, C9orf123 / Fold change vs veh, C9orf123 / RFU, N4BP2L2 / Fold change vs veh, N4BP2L2 / RFU, ARFIP1 / Fold change vs veh, ARFIP1 / RFU, FAM179B / Fold change vs veh, FAM179B / RFU, BCL10 / Fold change vs veh, BCL10 / RFU, UHRF1BP1L / Fold change vs veh, UHRF1BP1L / RFU, BET1 / Fold change vs veh, BET1 / RFU, CNOT2 / Fold change vs veh, CNOT2 / RFU, ZNF268 / Fold change vs veh, ZNF268 / Fold change vs veh, ZNF507 / RFU, DGCR2 / Fold change vs veh, DGCR2 / RFU, WDSUB1 / Fold change vs veh, WDSUB1 / Fold change vs veh, HSP90B1 /// MIR3652 / RFU, ADSS / Fold change vs veh, ADSS / RFU, GK / Fold change vs veh, GK / RFU, ZNF148 / Fold change vs veh, ZNF148 / RFU, TAF9 / Fold change vs veh, TAF9 / RFU, SLC1A5 / Fold change vs veh, SLC1A5 / RFU, SLMO2 / Fold change vs veh, SLMO2 / RFU, ABCC4 / Fold change vs veh, ABCC4 / RFU, LOC101060439 /// RAP1B / Fold change vs veh, LOC101060439 /// RAP1B / RFU, RFX7 / Fold change vs veh, RFX7 / RFU, GTPBP10 / Fold change vs veh, GTPBP10 / RFU, CNEP1R1 / Fold change vs veh, CNEP1R1 / RFU, BIVM-ERCC5 /// ERCC5 / Fold change vs veh, BIVM-ERCC5 /// ERCC5 / RFU, ILF3 / Fold change vs veh, ILF3 / RFU 11762660_at / Fold change /veh 11762660_at / RFU VCAN (11757783_s_at) / Fold change /veh VCAN (11757783_s_at) / RFU DDX43 (11728927_at) / Fold change /veh DDX43 (11728927_at) / RFU KRT8 (11758188_x_at) / Fold change /veh KRT8 (11758188_x_at) / RFU NKD1 (11759106_at) / Fold change /veh NKD1 (11759106_at) / RFU SRD5A1 (11742802_a_at) / Fold change /veh SRD5A1 (11742802_a_at) / RFU TPSAB1 /// TPSB2 (11721975_s_at) / Fold change /veh TPSAB1 /// TPSB2 (11721975_s_at) / RFU GSTM3 (11746129_a_at) / Fold change /veh GSTM3 (11746129_a_at) / RFU IL23R (11737362_x_at) / Fold change /veh IL23R (11737362_x_at) / RFU TMEM51 (11727254_a_at) / Fold change /veh TMEM51 (11727254_a_at) / RFU PIWIL2 (11732686_x_at) / Fold change /veh PIWIL2 (11732686_x_at) / RFU ORM1 (11744905_x_at) / Fold change /veh ORM1 (11744905_x_at) / RFU CCDC152 (11743942_at) / Fold change /veh CCDC152 (11743942_at) / RFU ECM1 (11717891_a_at) / Fold change /veh ECM1 (11717891_a_at) / RFU IL23R (11748794_a_at) / Fold change /veh IL23R (11748794_a_at) / RFU TNFAIP8L3 (11732012_x_at) / Fold change /veh TNFAIP8L3 (11732012_x_at) / RFU MBOAT4 (11741988_at) / Fold change /veh MBOAT4 (11741988_at) / RFU 11764193_at / Fold change /veh 11764193_at / RFU TMEM53 (11763286_at) / Fold change /veh TMEM53 (11763286_at) / RFU MAGEB2 (11727129_at) / Fold change /veh MAGEB2 (11727129_at) / RFU TMEM200A (11744735_a_at) / Fold change /veh TMEM200A (11744735_a_at) / RFU CCDC152 (11751479_a_at) / Fold change /veh CCDC152 (11751479_a_at) / RFU FAM211A (11726209_a_at) / Fold change /veh FAM211A (11726209_a_at) / RFU RGS16 (11746705_a_at) / Fold change /veh RGS16 (11746705_a_at) / RFU VCAN (11755009_s_at) / Fold change /veh VCAN (11755009_s_at) / RFU RHOB (11743442_s_at) / Fold change /veh RHOB (11743442_s_at) / RFU RGS16 (11720943_a_at) / Fold change /veh RGS16 (11720943_a_at) / RFU RGS16 (11720944_at) / Fold change /veh RGS16 (11720944_at) / RFU, VPS4B / Fold change vs veh, VPS4B / RFU, CREB1 / Fold change vs veh, CREB1 / RFU, DNAJC13 / Fold change vs veh, DNAJC13 / RFU, GNAQ / Fold change vs veh, GNAQ / RFU, CDK5R1 / Fold change vs veh, CDK5R1 / RFU, ZRANB3 / Fold change vs veh, ZRANB3 / RFU, CUL4A / Fold change vs veh, CUL4A / RFU, CCNY / Fold change vs veh, CCNY / RFU, UFL1 / Fold change vs veh, UFL1 / RFU, COG3 / Fold change vs veh, COG3 / RFU, DIAPH2 / Fold change vs veh, DIAPH2 / RFU, SKA2 / Fold change vs veh, SKA2 / RFU, AFF3 / Fold change vs veh, AFF3 / RFU, LMF1 / Fold change vs veh, LMF1 / RFU, IPO11 / Fold change vs veh, IPO11 / RFU, DFFB / Fold change vs veh, DFFB / RFU, FOXP1 / Fold change vs veh, FOXP1 / RFU, CARD8 / Fold change vs veh, CARD8 / RFU, STRN3 / Fold change vs veh, STRN3 / RFU, ADK / Fold change vs veh, ADK / RFU, RASSF2 / Fold change vs veh, RASSF2 / RFU, WIPF1 / Fold change vs veh, WIPF1 / RFU, LARP1B / Fold change vs veh, LARP1B / RFU, RASA1 / Fold change vs veh, RASA1 / RFU, RB1 / Fold change vs veh, RB1 / RFU, PPFIA1 / Fold change vs veh, PPFIA1 / RFU, MAT2A / Fold change vs veh, MAT2A / RFU, CCT5 / Fold change vs veh, CCT5 / RFU, WDR92 / Fold change vs veh, WDR92 / RFU, CUX1 / Fold change vs veh, CUX1 / RFU, TTC7A / Fold change vs veh, TTC7A / RFU, TMEM135 / Fold change vs veh, TMEM135 / RFU, DEPTOR / Fold change vs veh, DEPTOR / RFU, CPM / Fold change vs veh, CPM / RFU, DNAJB6 / Fold change vs veh, DNAJB6 / RFU, CACNA2D3 / Fold change vs veh, CACNA2D3 / RFU, DTX4 / Fold change vs veh, DTX4 / RFU, TFCP2 / Fold change vs veh, TFCP2 / RFU, GMCL1 /// GMCL1P1 / Fold change vs veh, GMCL1 /// GMCL1P1 / RFU, AEBP2 / Fold change vs veh, AEBP2 / RFU, SNHG1 /// SNORD22 /// SNORD25 /// SNORD26 /// SNORD27 /// SNORD28 /// SNORD29 /// SNORD31 / Fold change vs veh, SNHG1 /// SNORD22 /// SNORD25 /// SNORD26 /// SNORD27 /// SNORD28 /// SNORD29 /// SNORD31 / Fold change (Aza/veh), C12orf56 (ProbeSet 11735607_a_at) / Fold change (ACY-1035/veh), C12orf56 (ProbeSet 11735607_a_at) / Fold change (Aza/veh), FGFR1OP (ProbeSet 11751329_s_at) / Fold change (ACY-1035/veh), FGFR1OP (ProbeSet 11751329_s_at) / Fold change (Aza/veh), VPS36 (ProbeSet 11739960_a_at) / Fold change (ACY-1035/veh), VPS36 (ProbeSet 11739960_a_at) / RFU SYPL1 (11715823_x_at) / Fold change /veh SYPL1 (11715823_x_at) / RFU IGFBP7 (11715501_s_at) / Fold change /veh IGFBP7 (11715501_s_at) / RFU REEP3 (11722064_at) / Fold change /veh REEP3 (11722064_at) / RFU IGLL1 (11728026_x_at) / Fold change /veh IGLL1 (11728026_x_at): dose or concentration left out as unconfirmed", "conditions": "MV-4-11 cells, 48 hours"}
{"molecule": "Nc1ncn([C@@H]2O[C@H](CO)[C@@H](O)[C@H]2O)c(=O)n1", "note": "[azacitidine]", "values": [{"measurement": "RFU SPINT1 (11716480_a_at)", "value": 23.10, "unit": "RFU"}]}
